Experimental data: patent US20180099931A1 (AbbVie S.à.r.l., priority 2016, published 2018)
Like-named read-outs stand apart in the source and are kept apart here.

Target: T1, F508delCFTR (Homo sapiens, UniProt P13569, DEL508-508)
T1 construct: expressed in transfected cells; host or cells: CFBE41o- human lung-derived epithelial cells (CFBE4lo-F508delCFTR-HRP), doxycycline-inducible
Assay: Cell Surface Expression-Horse Radish Peroxidase (CSE-HRP) Assay;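 as to Maximum % activity (with co-corrector): co-corrector and positive control are both the same reference corrector at 2 µM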;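 as to Maximum % activity (without co-corrector): percent of the 2 µM on-plate positive control corrector response above DMSO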
Type: cell-based
Settings: CSE-HRP; for Maximum % activity (with co-corrector): with co-corrector (2 μM); for Maximum % activity (with co-corrector) / Emax: maximum at any tested concentration, normalized to on-plate positive control; for Emax: without co-corrector, read-out: Maximum % activity (without co-corrector)

[1] = test compound without co-corrector, read-out: EC50 (without co-corrector)
[2] = with co-corrector (2 μM of 3-[(2R,4R)-4-({[1-(2,2-difluoro-1,3-benzodioxol-5-yl)cyclopropyl]carbonyl}amino)-7-methoxy-3,4-dihydro-2H-chromen-2-yl]benzoic acid), read-out: EC50 (with co-corrector)

T1 sequence (P13569 with tags, fused parts or gaps DEL508-508): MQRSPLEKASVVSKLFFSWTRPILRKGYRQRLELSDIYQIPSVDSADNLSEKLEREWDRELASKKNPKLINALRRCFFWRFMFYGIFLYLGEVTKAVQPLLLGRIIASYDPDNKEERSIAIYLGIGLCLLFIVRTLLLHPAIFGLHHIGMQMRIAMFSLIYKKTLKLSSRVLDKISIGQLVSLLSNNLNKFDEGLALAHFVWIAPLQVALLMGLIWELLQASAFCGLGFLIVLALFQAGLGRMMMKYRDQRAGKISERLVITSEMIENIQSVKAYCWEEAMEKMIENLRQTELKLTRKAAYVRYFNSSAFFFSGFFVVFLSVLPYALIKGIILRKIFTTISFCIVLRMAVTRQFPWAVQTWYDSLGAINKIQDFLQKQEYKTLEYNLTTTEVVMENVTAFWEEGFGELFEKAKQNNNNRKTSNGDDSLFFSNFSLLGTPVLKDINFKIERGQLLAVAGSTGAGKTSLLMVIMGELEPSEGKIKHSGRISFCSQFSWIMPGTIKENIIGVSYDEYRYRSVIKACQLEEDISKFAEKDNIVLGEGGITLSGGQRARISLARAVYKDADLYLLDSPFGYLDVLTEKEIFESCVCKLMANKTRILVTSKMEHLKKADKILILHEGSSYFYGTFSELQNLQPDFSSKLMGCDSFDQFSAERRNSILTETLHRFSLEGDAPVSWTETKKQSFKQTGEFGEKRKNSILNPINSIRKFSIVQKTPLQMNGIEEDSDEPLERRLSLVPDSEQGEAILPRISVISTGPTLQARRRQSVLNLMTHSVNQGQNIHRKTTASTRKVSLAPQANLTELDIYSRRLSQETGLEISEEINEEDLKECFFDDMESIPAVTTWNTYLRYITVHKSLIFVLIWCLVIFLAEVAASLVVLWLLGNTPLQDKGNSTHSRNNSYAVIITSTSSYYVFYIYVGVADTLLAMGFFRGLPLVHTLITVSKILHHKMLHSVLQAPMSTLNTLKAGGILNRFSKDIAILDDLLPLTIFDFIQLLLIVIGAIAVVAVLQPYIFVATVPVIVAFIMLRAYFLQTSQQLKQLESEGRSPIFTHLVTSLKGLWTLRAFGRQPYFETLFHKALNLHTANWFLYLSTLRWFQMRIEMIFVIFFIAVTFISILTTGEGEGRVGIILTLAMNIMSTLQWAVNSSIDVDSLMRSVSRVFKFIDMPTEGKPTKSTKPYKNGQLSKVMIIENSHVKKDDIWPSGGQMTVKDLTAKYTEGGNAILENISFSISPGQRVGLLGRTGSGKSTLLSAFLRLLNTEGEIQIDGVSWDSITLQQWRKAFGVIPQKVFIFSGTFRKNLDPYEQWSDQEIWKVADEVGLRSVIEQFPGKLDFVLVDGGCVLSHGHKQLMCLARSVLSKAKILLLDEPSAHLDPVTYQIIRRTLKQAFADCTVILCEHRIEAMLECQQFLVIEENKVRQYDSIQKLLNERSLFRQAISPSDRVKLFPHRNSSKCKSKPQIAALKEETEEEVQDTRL

Row | SMILES | EC50 [1] [nM] | EC50 [2] [nM] | Maximum % activity (with co-corrector) | Emax [%]
1 | COc1ccc(C(C)(C)C)cc1CN[C@H]1[C@H](C(C)(C)C)[C@@H](C(=O)O)N(C(=O)C2CCC(C#N)CC2)[C@H]1c1ccccc1 (some centres unmarked) [II-175] | 1000 to 10000 | 1000 to 10000 | +++ (≥350) | 100 to 200
2 | COc1ccc(C(C)(C)C)cc1CN[C@H]1[C@H](C(C)(C)C)[C@@H](C(=O)O)N(C(=O)CC2CCC(C)(C)OC2)[C@H]1c1ccccc1 (some centres unmarked) [II-176] | 1000 to 10000 | 1000 to 10000 | +++ (≥350) | 100 to 200
3 | COc1ccc(C(C)(C)C)cc1CN[C@H]1[C@H](C(C)(C)C)[C@@H](C(=O)O)N(C(=O)CC23CC(C2)C3)[C@H]1c1ccccc1 [II-177] | 1000 to 10000 | < 1000 | +++ (≥350) | > 200
4 | COc1ccc(C(C)(C)C)cc1CN[C@H]1[C@H](C(C)(C)C)[C@@H](C(=O)O)N(C(=O)C[C@H]2OCCc3ccccc32)[C@H]1c1ccccc1 [II-178] | 1000 to 10000 | < 1000 | +++ (≥350) | > 200
5 | COc1ccc(C(C)(C)C)cc1CN[C@H]1[C@H](C(C)(C)C)[C@@H](C(=O)O)N(C(=O)CC2CCCOC2)[C@H]1c1ccccc1 (some centres unmarked) [II-179] | 1000 to 10000 | 1000 to 10000 | +++ (≥350) | > 200
6 | COc1ccc(C(C)(C)C)cc1CN[C@H]1[C@H](C(C)(C)C)[C@@H](C(=O)O)N(C(=O)Cc2ccccc2)[C@H]1c1ccccc1 [II-180] | 1000 to 10000 | < 1000 | +++ (≥350) | > 200
7 | COc1ccc(C(C)(C)C)cc1CN[C@H]1[C@H](C(C)(C)C)[C@@H](C(=O)O)N(C(=O)Cc2ccc(F)cc2)[C@H]1c1ccccc1 [II-181] | 1000 to 10000 | 1000 to 10000 | +++ (≥350) | 100 to 200
8 | COc1ccc(C(C)(C)C)cc1CN[C@H]1[C@H](C(C)(C)C)[C@@H](C(=O)O)N(C(=O)Cc2cccs2)[C@H]1c1ccccc1 [II-182] | 1000 to 10000 | < 1000 | +++ (≥350) | > 200
9 | COc1ccc(C(C)(C)C)cc1CN[C@H]1[C@H](C(C)(C)C)[C@@H](C(=O)O)N(C(=O)Cc2ccccc2Cl)[C@H]1c1ccccc1 [II-183] | < 1000 | < 1000 | +++ (≥350) | > 200
10 | COc1ccc(C(C)(C)C)cc1CN[C@H]1[C@H](C(C)(C)C)[C@@H](C(=O)O)N(C(=O)Cc2cccnc2)[C@H]1c1ccccc1 [II-184] | 1000 to 10000 | 1000 to 10000 | +++ (≥350) | 100 to 200
11 | COc1ccc(C(C)(C)C)cc1CN[C@H]1[C@H](C(C)(C)C)[C@@H](C(=O)O)N(C(=O)c2coc3ccccc23)[C@H]1c1ccccc1 [II-185] | < 1000 | < 1000 | +++ (≥350) | < 100
12 | COc1ccc(C(C)(C)C)cc1CN[C@H]1[C@H](C(C)(C)C)[C@@H](C(=O)O)N(C(=O)C2CCCC(C(F)(F)F)C2)[C@H]1c1ccccc1 (some centres unmarked) [II-186] | < 1000 | < 1000 | +++ (≥350) | > 200
13 | COc1ccc(C(C)(C)C)cc1CN[C@H]1[C@H](C(C)(C)C)[C@@H](C(=O)O)N(C(=O)CN2CCCC2)[C@H]1c1ccccc1 [II-187] | 1000 to 10000 | 1000 to 10000 | ++ (≥150 and <350) | < 100
14 | COc1ccc(C(C)(C)C)cc1CN[C@H]1[C@H](C(C)(C)C)[C@@H](C(=O)O)N(C(=O)CC2CCC(F)(F)CC2)[C@H]1c1ccccc1 [II-188] | 1000 to 10000 | 1000 to 10000 | +++ (≥350) | > 200
15 | COc1ccc(C(C)(C)C)cc1CN[C@H]1[C@H](C(C)(C)C)[C@@H](C(=O)O)N(C(=O)C2(c3ccccn3)CC2)[C@H]1c1ccccc1 [II-189] | 1000 to 10000 | 1000 to 10000 | +++ (≥350) | > 200
16 | COc1ccc(OC(F)(F)F)cc1CN[C@H]1[C@H](C(C)(C)C)[C@@H](C(=O)O)N(C(=O)C2CCCCC2)[C@H]1c1ccccc1 [II-190] | 1000 to 10000 | < 1000 | +++ (≥350) | > 200
17 | COc1ccc(Cc2ccccc2)cc1CN[C@H]1[C@H](C(C)(C)C)[C@@H](C(=O)O)N(C(=O)C2CCCCC2)[C@H]1c1ccccc1 [II-191] | 1000 to 10000 | < 1000 | +++ (≥350) | > 200
18 | COc1ccc(C2CCCCC2)cc1CN[C@H]1[C@H](C(C)(C)C)[C@@H](C(=O)O)N(C(=O)C2CCCCC2)[C@H]1c1ccccc1 [II-192] | < 1000 | < 1000 | +++ (≥350) | > 200

Row | SMILES | EC50 [1] [nM] | EC50 [2] [nM] | Maximum % activity (with co-corrector) | Emax [%]
19 | COc1ccc(C2CCCC2)cc1CN[C@H]1[C@H](C(C)(C)C)[C@@H](C(=O)O)N(C(=O)C2CCCCC2)[C@H]1c1ccccc1 [II-193] | < 1000 | < 1000 | +++ (≥350) | > 200
20 | COc1ccc(C2CC3CCC2C3)cc1CN[C@H]1[C@H](C(C)(C)C)[C@@H](C(=O)O)N(C(=O)C2CCCCC2)[C@H]1c1ccccc1 (some centres unmarked) [II-194] | < 1000 | < 1000 | +++ (≥350) | > 200
21 | COc1ccc(C(C)(C)C)cc1CN[C@H]1[C@H](C(C)(C)C)[C@@H](C(=O)O)N(C(=O)Cc2ccc(O)cc2)[C@H]1c1ccccc1 [II-195] | 1000 to 10000 | 1000 to 10000 | +++ (≥350) | > 200
22 | COc1ccc(C(C)(C)C)cc1CN[C@H]1[C@H](C(C)(C)C)[C@@H](C(=O)O)N(C(=O)Cc2cccc(O)c2)[C@H]1c1ccccc1 [II-196] | 1000 to 10000 | 1000 to 10000 | +++ (≥350) | > 200
23 | COc1ccc(C(C)(C)C)cc1CN[C@H]1[C@H](C(C)(C)C)[C@@H](C(=O)O)N(C(=O)c2cc(C)nc(C)c2)[C@H]1c1ccccc1 [II-197] | 1000 to 10000 | 1000 to 10000 | ++ (≥150 and <350) | < 100
24 | COc1ccc(C(C)(C)C)cc1CN[C@H]1[C@H](C(C)(C)C)[C@@H](C(=O)O)N(C(=O)c2cccnc2C)[C@H]1c1ccccc1 [II-198] | 1000 to 10000 | 1000 to 10000 | ++ (≥150 and <350) | < 100
25 | COc1ccc(C(C)(C)C)cc1CN[C@H]1[C@H](C(C)(C)C)[C@@H](C(=O)O)N(C(=O)Cc2cccc(F)c2)[C@H]1c1ccccc1 [II-199] | 1000 to 10000 | 1000 to 10000 | +++ (≥350) | > 200
26 | COc1ccc(C(C)(C)C)cc1CN[C@H]1[C@H](C(C)(C)C)[C@@H](C(=O)O)N(C(=O)Cc2cc(F)cc(F)c2)[C@H]1c1ccccc1 [II-200] | 1000 to 10000 | < 1000 | +++ (≥350) | 100 to 200
27 | COc1ccc(C(C)(C)C)cc1CN[C@H]1[C@H](C(C)(C)C)[C@@H](C(=O)O)N(C(=O)Cc2c(F)cccc2F)[C@H]1c1ccccc1 [II-201] | < 1000 | < 1000 | +++ (≥350) | > 200
28 | COc1ccc(C(C)(C)C)cc1CN[C@H]1[C@H](C(C)(C)C)[C@@H](C(=O)O)N(C(=O)Cc2cc(F)ccc2F)[C@H]1c1ccccc1 [II-202] | < 1000 | < 1000 | +++ (≥350) | > 200
29 | COc1ccc(C(C)(C)C)cc1CN[C@H]1[C@H](C(C)(C)C)[C@@H](C(=O)O)N(C(=O)Cc2cccc(C)c2)[C@H]1c1ccccc1 [II-203] | 1000 to 10000 | < 1000 | +++ (≥350) | 100 to 200
30 | COc1ccc(C(C)(C)C)cc1CN[C@H]1[C@H](C(C)(C)C)[C@@H](C(=O)O)N(C(=O)Cc2ccc(C)cc2)[C@H]1c1ccccc1 [II-204] | < 1000 | < 1000 | +++ (≥350) | 100 to 200
31 | COc1ccc(C(C)(C)C)cc1CN[C@H]1[C@H](C(C)(C)C)[C@@H](C(=O)O)N(C(=O)Cc2ccccc2C)[C@H]1c1ccccc1 [II-205] | < 1000 | < 1000 | +++ (≥350) | > 200
32 | COc1ccc(C(C)(C)C)cc1CN[C@H]1[C@H](C(C)(C)C)[C@@H](C(=O)O)N(C(=O)Cc2ccccc2F)[C@H]1c1ccccc1 [II-206] | < 1000 | < 1000 | +++ (≥350) | > 200
33 | COc1ccc(C(C)(C)C)cc1CN[C@H]1[C@H](C(C)(C)C)[C@@H](C(=O)O)N(C(=O)c2c(OC)cnn2C)[C@H]1c1ccccc1 [II-207] | 1000 to 10000 | 1000 to 10000 | +++ (≥350) | 100 to 200
34 | COc1ccc(C(C)(C)C)cc1CN[C@H]1[C@H](C(C)(C)C)[C@@H](C(=O)O)N(C(=O)Cc2cc(C)sc2C)[C@H]1c1ccccc1 [II-208] | 1000 to 10000 | < 1000 | +++ (≥350) | > 200
35 | COc1ccc(C(C)(C)C)cc1CN[C@H]1[C@H](C(C)(C)C)[C@@H](C(=O)O)N(C(=O)CN2CCOCC2)[C@H]1c1ccccc1 [II-209] | 1000 to 10000 | 1000 to 10000 | +++ (≥350) | 100 to 200
